The target of assay [1] is T1, Human 5-HT1B receptor (Homo sapiens, UniProt P28222).
T1 construct: expressed in transfected cells; host or cells: CHO
Kind of assay: Human 5-HT1B receptor affinity, [3H]-5-HT radioligand binding. The conditions noted are these: CHO cell membranes expressing 5-HT1B, [3H]-5-HT 3 nM, 37° C. 45 minutes; assay b); read-out: pKi against 5-HT1B (converted). Here is the method: (§1) b) Human 5-HT1A, 5-HT1B and 5-HT1D Receptor Affinity
(§2) The affinities of the compounds of the invention for the 5-HT1A, 5-HT1B and 5-HT1D receptors may be determined by the following assay.
(§3) Homogenise chinese hamster ovary (CHO) cells expressing 5-HT1A receptors (4×10^7 cells/ml) in Tris buffer and store in 1 ml aliquots. Homogenise CHO cells expressing 5-HT1B receptors (4×10^7 cells/ml) in Tris buffer and store in 1.5 ml aliquots. Homogenise CHO cells expressing 5-HT1D receptors (1×10^8/ml) in Tris buffer and stored in 1 ml aliquots. The binding assays are carried out in a total volume of 500 μl. For each compound to be tested make up seven solutions ranging in concentration from 0.3 mM to 0.3 nM (100× final concentrations). Dispense 5 μl of solution containing the test compound per well and add 100 μl of radioligand at 5× final desired assay concentration, i.e. [^3H]-5-HT 15 nM (final assay concentration: 3 nM) in Tris Mg HCl buffer (pH 7.7) for 5-HT1B/1D receptors and [^3H]WAY100635 2.5 nM (final assay concentration: 0.5 nM) in Tris Mg HCl buffer (pH 7.7) containing 150 μM GPP(NH)p (final assay concentration: 30 μM) for 5-HT1A receptors. Add 400 μl/well of a cell membrane suspension in Tris Mg HCl buffer (pH 7.7) to make a total volume of 505 μl. Incubate at 37° C. for 45 minutes. […] Measure radioactivity using Topcount scintillation counting. […]

Assay [2] concerns the target T2, Human 5-HT1A receptor (Homo sapiens, UniProt P08908).
T2 sequence (P08908 1-422): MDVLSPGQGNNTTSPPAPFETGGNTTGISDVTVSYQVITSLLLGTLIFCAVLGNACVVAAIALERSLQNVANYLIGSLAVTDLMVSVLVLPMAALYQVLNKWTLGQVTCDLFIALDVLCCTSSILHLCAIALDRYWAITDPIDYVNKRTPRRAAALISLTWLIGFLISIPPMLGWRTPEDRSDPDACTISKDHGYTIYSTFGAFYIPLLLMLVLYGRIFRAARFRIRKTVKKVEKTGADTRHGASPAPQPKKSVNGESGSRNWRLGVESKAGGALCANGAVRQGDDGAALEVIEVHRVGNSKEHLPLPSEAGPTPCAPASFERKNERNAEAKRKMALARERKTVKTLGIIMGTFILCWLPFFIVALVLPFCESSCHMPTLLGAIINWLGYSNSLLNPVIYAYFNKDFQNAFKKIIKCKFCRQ
In words: Human 5-HT1A receptor functional potency, GTPγS binding protocol. It counts as biochemical. Further details: expressed in transfected cells. The conditions noted are these: GTPγS binding, membranes of HEK293 cells transfected with human 5-HT1A; assay a); read-out: fpKi against 5-HT1A (converted). How it is done:
a) Human 5-HT1A Receptor Functional Potency
The functional potency of the compounds of the invention for the 5-HT1A receptor may be determined by the following GTPγS binding protocol. Cells used in the study are CHO Cells and Human Embryo Kidney (HEK293). Transfect cells with DNA coding for human receptor as follows: HEK293—5-HT1A. Initially dissolve test compounds in 100% dimethyl sulfoxide to a concentration of 10 mM. Serially dilute the test compounds in 100% dimethyl sulphoxide using a Biomek FX in 384 well assay plates, so that the final top concentration of test compound is 3 μM in the assay. Add the test compound at 1.0% total assay volume (TAV) to a solid, white, 384 well assay plate (Griener). Add 50% TAV of precoupled (for 60 mins @ RT) membranes (6 ug/well), Wheatgerm Agglutinin Polystyrene Scintillation Proximity Assay beads (RPNQ0260 Amersham International) (0.25 mg/well) in 20 mM HEPES pH 7.4, 100 mM NaCl, 3 mM MgCl2 and 10 μM GDP and saponin 60 m/well FAC was also added. The third addition may be either a 20% TAV addition of either; buffer for agonist format, or EC80 final assay concentration (FAC) of agonist, prepared in assay buffer, 5HT, for antagonist format.
Start the assay by the addition of 29% TAV of GTPγS 0.38 nM FAC.
After all additions, incubate the assay plates at RT for 2-3 hours. […] Read the assay plates between 3-6 hours after the final addition.
In general terms: GTPγS is a poorly hydrolysed GTP analogue; its binding reports G protein activation.

The target in assay [3] is T2, Human 5-HT1A receptor. Kind of assay: Human 5-HT1A receptor affinity, [3H]WAY100635 radioligand binding. Also on record: expressed in transfected cells; host or cells: CHO. Particulars: CHO cell membranes expressing 5-HT1A, [3H]WAY100635 0.5 nM, 37° C. 45 minutes; assay b); read-out: pKi against 5-HT1A (converted). Here is the method: as §1, §2, §3

Each structure is given as a SMILES string.

T1 sequence (P28222 whole entry): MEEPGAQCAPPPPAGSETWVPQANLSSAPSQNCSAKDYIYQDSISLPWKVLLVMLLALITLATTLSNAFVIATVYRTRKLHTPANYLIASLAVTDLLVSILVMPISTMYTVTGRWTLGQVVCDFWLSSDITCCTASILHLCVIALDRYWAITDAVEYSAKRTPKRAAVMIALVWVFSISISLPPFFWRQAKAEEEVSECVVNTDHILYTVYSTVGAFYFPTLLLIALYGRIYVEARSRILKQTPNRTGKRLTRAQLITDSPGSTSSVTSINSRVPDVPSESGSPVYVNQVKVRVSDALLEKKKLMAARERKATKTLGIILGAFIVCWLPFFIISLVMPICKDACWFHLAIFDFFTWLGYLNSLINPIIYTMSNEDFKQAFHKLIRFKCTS

With `COc1cccn(CCCCN2CCN(c3cccc4nc(C)ccc34)CC2)c1=O` [compound of formula (I), 3-(methyloxy)-1-{4-[4-(2-methyl-5-quinolinyl)-1-piperazinyl]butyl}-2(1H)-pyridinone], the Ki in assay [1] is 200 nM; in assay [2], 0.501 nM; in assay [3], 0.501 nM.

The values above are taken from patent US7928108B2, “Pyridinone derivative for the treatment of premature ejaculation” (Glaxo Group Limited, priority 2007, dated 2011).
